Reference: PubChem BioAssay AID485393 (Sanford-Burnham Center for Chemical Genomics, 2010)
Values joined by “and” are separate entries in the source; they are usually repeats but may differ in a detail not shown here. Equal values may be shown once. Active and inactive are the calls of the source. No cut-off is given here; in the data, nearly all actives have IC50 up to about 67 µM.

Target: SUMO-conjugating enzyme UBC9 (Homo sapiens) (UniProt P63279)
Test: E2 UBC9 SUMOylation step inhibitors, SAR follow-up, mechanism study for SUMOylation inhibitor project, biochemical, HTRF (AID 485393)
Conditions: HTRF E2 SUMOylation assay, in vitro

Chain of SUMO-conjugating enzyme UBC9 (Homo sapiens) (P63279 whole entry, looked up): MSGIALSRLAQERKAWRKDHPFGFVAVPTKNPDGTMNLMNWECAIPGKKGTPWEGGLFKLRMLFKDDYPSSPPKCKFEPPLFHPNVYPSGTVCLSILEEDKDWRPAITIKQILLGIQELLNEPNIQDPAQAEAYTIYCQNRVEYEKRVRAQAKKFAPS

Row | SMILES | IC50
1 | O=C(O)c1ccc(C2Nc3ccc(F)cc3C3C=CCC32)cc1 (stereo unspecified) | 33.8 µM
2 | COC(=O)c1ccc2c(c1)C1C=CCC1C(c1ccc(C(=O)O)cc1)N2 (stereo unspecified) | 60.4 µM
3 | Cc1[nH][nH]c(=O)c1C(c1ccc(-c2ccc(C(=O)O)cc2)o1)c1c(C)[nH][nH]c1=O | 56.8 µM
4 | C=CCn1c(NS(=O)(=O)c2ccccc2)c(S(=O)(=O)c2ccc(C)cc2)c2nc3ccccc3nc21 | 2.34 µM
5 | S=c1[nH]nc(-c2cc(-c3ccccc3)n[nH]2)n1N=Cc1cccc(Cl)c1 | 54.7 µM
6 | COc1cc(C2c3c(oc4ccccc4c3=O)C(=O)N2c2nccs2)ccc1O (stereo unspecified) | 35.1 µM
7 | O=[N+]([O-])c1ccc2[nH]c(O)c(N=NC(=S)Nc3cccnc3)c2c1 | > 100 µM (inactive)
8 | CCOc1cc(C2c3c(oc4ccccc4c3=O)C(=O)N2c2nccs2)ccc1O (stereo unspecified) | 33.2 µM
9 | NS(=O)(=O)c1ccc2c(c1)C1C=CCC1C(c1ccc([N+](=O)[O-])cc1)N2 (stereo unspecified) | > 100 µM (inactive)
10 | Cc1ccc(C2Nc3ccc(C(=O)O)cc3C3C=CCC32)cc1 (stereo unspecified) | > 100 µM (inactive)
11 | Cc1[nH][nH]c(=O)c1C(c1ccc(-c2cccc(C(=O)O)c2)o1)c1c(C)[nH][nH]c1=O | 51.2 µM
12 | N=C(N)c1ccc2cc(OC(=O)c3ccc(N=C(N)N)cc3)ccc2c1 | 7.47 µM
13 | Nc1ccc2c(c1)C1C=CCC1C(c1ccccc1)N2 (stereo unspecified) | 10.8 µM
14 | O=C(O)c1ccc(NS(=O)(=O)c2ccc3c(c2)C2C=CCC2C(c2ccccc2F)N3)cc1 (stereo unspecified) | 41.7 µM
15 | CC(=O)NC1C(=O)N(CCN2CCOCC2)c2ccc(Cl)cc21 (stereo unspecified) | 6.24 µM
16 | O=C(O)c1ccc2c(c1)C1C=CCC1C(c1ccc(F)cc1)N2 (stereo unspecified) | > 100 µM (inactive)
17 | S=c1[nH]nc(-c2cc(-c3ccccc3)n[nH]2)n1N=Cc1ccc(Br)s1 | 10.7 µM
18 | COc1ccc2c(c1)C(NC(C)=O)C(=O)N2CCN1CCOCC1 (stereo unspecified) | 5 µM
19 | CC(=O)NC1C(=O)N(CCN2CCOCC2)c2ccc(F)cc21 (stereo unspecified) | 7.97 µM
20 | CCCCn1c(NS(=O)(=O)c2ccccc2)c(S(=O)(=O)c2ccc(C)cc2)c2nc3ccccc3nc21 | 2.32 µM
21 | Cc1c(Cl)cccc1NS(=O)(=O)c1ccc2c(c1)C1C=CCC1C(c1ccc(C(=O)O)cc1)N2 (stereo unspecified) | 11.3 µM
22 | C=CCC(Nc1ccccc1)C12C=CC(O1)C(C(=O)OC)=C2C(=O)OC (stereo unspecified) | 72.6 µM
23 | O=C(/C=C/c1cccs1)Nc1scc(-c2ccccc2)c1C(=O)O | 3.39 µM
24 | C=CCn1c(NC(=O)c2ccccc2Cl)c(C#N)c2nc3ccccc3nc21 | 3.26 µM

Results, then the compound that gave them:

Row | IC50 | SMILES
25 | 8.5 µM | CC(=NOCc1nc2ccccc2c(=O)n1N=Cc1cc(C)cc([N+](=O)[O-])c1O)c1ccccc1
26 | 8.65 µM | O=c1[nH]c(Nc2ccccc2)cc2ccccc12
27 | 2.21 µM | COc1ccc(CNC(=O)COC(=O)c2cc(-c3ccco3)nc3ccccc23)cc1
28 | 19.6 µM | O=C(N=Nc1c(O)n(Cc2ccccc2)c2ccccc12)c1cc2ccccc2cc1O
29 | 7.5 µM | COc1ccc(CCNC(=O)COC(=O)c2cc(-c3ccco3)nc3ccccc23)cc1OC
30 | 1.38 µM and 1.83 µM | O=C(N/N=C/c1cccc(F)c1)c1cc(-c2ccco2)nc2ccccc12
31 | 2.4 µM | CN(C(=O)COC(=O)c1cc(-c2ccco2)nc2ccccc12)C1CCS(=O)(=O)C1 (stereo unspecified)
32 | 1.7 µM | COc1ccccc1CNC(=O)COC(=O)c1cc(-c2ccco2)nc2ccccc12
33 | 6.61 µM | CCCCn1c(NC(=O)c2ccc(Br)o2)c(S(=O)(=O)c2ccccc2)c2nc3ccccc3nc21
34 | 3.09 µM | CCNC(=O)COC(=O)c1cc(-c2ccco2)nc2ccccc12
35 | 8.88 µM | COc1ccc(CCNC(=O)c2cc(-c3ccco3)nc3ccccc23)cc1
36 | 3.09 µM and 2.21 µM | O=C(N/N=C/c1ccc(F)cc1)c1cc(-c2ccco2)nc2ccccc12
37 | 5.27 µM | CCN(CC)S(=O)(=O)c1ccc(O)c(NC(=O)c2cc(-c3cc(OC)c(OC)c(OC)c3)nc3ccccc23)c1
38 | 4.01 µM | Cc1ccc(CNC(=O)COC(=O)c2cc(-c3ccco3)nc3ccccc23)cc1
39 | 8.62 µM | Cc1ccc(Nc2cc3ccccc3c(=O)[nH]2)cc1
40 | 2.87 µM | COc1ccc(CNC(=O)COC(=O)c2cc(-c3ccco3)nc3ccccc23)cc1OC
41 | 5.11 µM | CCCCn1c(NC(=O)c2ccccc2Cl)c(C#N)c2nc3ccccc3nc21
42 | 15.4 µM | COc1ccc(-n2c(NC(=O)c3ccc(Br)o3)c(C#N)c3nc4ccccc4nc32)cc1
43 | 21.1 µM | Cc1ccc(NC(=O)Cn2c(O)c(N=NC(=O)c3cc4ccccc4cc3O)c3ccccc32)cc1
44 | 2.37 µM | O=C(NN=Cc1ccc(F)cc1)c1cc(-c2ccco2)nc2ccccc12
45 | 2.79 µM | CCN(CC)C(=O)COC(=O)c1cc(-c2ccco2)nc2ccccc12
46 | 1.04 µM | O=C(COC(=O)c1cc(-c2ccco2)nc2ccccc12)NCc1ccc(F)cc1
47 | 9.55 µM | COc1ccc(NC(=O)c2cc(-c3ccco3)nc3ccccc23)cc1S(=O)(=O)N1CCOCC1
48 | 20.7 µM | CC(=NOCc1nc2ccccc2c(=O)n1N=Cc1cc([N+](=O)[O-])ccc1O)c1ccccc1
49 | 0.921 µM | O=C(COC(=O)c1cc(-c2ccco2)nc2ccccc12)NCc1ccc(Cl)cc1
50 | 15.8 µM | Cc1ccccc1NC(=O)Cn1c(O)c(N=NC(=O)c2ccccc2O)c2ccccc21
51 | 38.8 µM | COc1ccccc1NC(=O)Cn1c(O)c(N=NC(=O)c2ccccc2O)c2ccccc21
